Data: patent US20030220280A1, “Schwann cell bridge implants and phosphodiesterase inhibitors to stimulate CNS nerve regeneration” (priority 2002, published 2003)

Columns and labels:
Assay type in all cases: in vivo, rat
[1] = test system: rats with a moderate contusion injury at thoracic cord segment 8; test: Gridwalk test for fine locomotor performance after moderate contusion injury; conditions: FIG. 4; 8 weeks after moderate contusion; 1 m gridwalk, maximum 20 errors
Excerpt: FIG. 4 compares footfall errors in a gridwalking analysis 8 weeks after a moderate contusion injury by weight drop (NYU impactor, 12.5 mm height) followed by db-cAMP administration plus Schwann cell transplantation with or without rolipram. Each treatment used 4 injection sites, 2-3 mm rostral and caudal to the injury site and on either side of the midline. A. Non-injured control; B. 1 week post-injury 2×10^6 Schwann cells injected into the injury site with saline; C. 1 week post-injury 2×10^6 Schwann cells injected with 4×0.2 μL×1 mM db-cAMP; D. 1 week post-injury 2×10^6 Schwann cells with 4×0.2 μL×50 mM db-cAMP; E. 1 day post-injury 2×10^6 Schwann cells with 4×0.2 μL×50 mM db-cAMP; F. animals received rolipram by minipump starting within 30 minutes of the injury (0.07 μmol/kg/hr for 2 weeks after injury) and 1 week later 2×10^6 Schwann cells with 4×0.2 μL×50 mM db-cAMP.
(§1) Adult rats (Fischer rats, Charles River Laboratories, 3-5 months old) were injured in the thoracic level of the spinal cord with the NYU weight drop device (NYU impactor) as described in Gruner (1992), and rolipram (0.07 μmol/kg/hr) was administered for two weeks. […]
The number of footfall errors that the animal makes is recorded (maximum is 20, 1 per leg per space between each bar) with higher scores indicating a poor ability to perform the tasks.

[2] = test system: rats with a moderate contusion injury at thoracic cord segment 8; test: Footprint analysis after moderate contusion injury; conditions: FIGS. 5-7; 8 weeks after moderate contusion; conditioned locomotion
Method: FIG. 5 compares stride length in a footprint analysis conducted 8 weeks after a moderate contusion injury by weight drop followed by db-cAMP administration plus Schwann cell transplantation with or without rolipram. Each treatment used 4 injection sites, 2-3 mm rostral and caudal to the injury site and on either side of the midline. A. Non-injured control; B. 1 week post-injury 2×10^6 Schwann cells injected into the injury site with saline; C. […]
FIGS. 5, 6 and 7 illustrate the locomotor patterns of injured rats that received various treatments, tested by inking both the fore- and hind-paws (different colors), allowing them to walk 1 m on an enclosed, flat runway and then analyzing the footprints. Recorded parameters from 8 consecutive steps included the animal's stride length (measured between the central pads of two consecutive prints on each side of the animal), base of support (determined by measuring the distance between the central pads of the hindpaws), and hindfoot outward rotation. […]

[3] = test system: rats with a complete spinal cord transection at thoracic cord segment 8; test: BBB test of hindlimb locomotion after complete spinal cord transection with Schwann cell bridge; conditions: rolipram by minipump 0.07 μmol/kg/hr for two weeks, assessed weekly
Excerpt: Schwann cells were purified in culture from adult rat sciatic nerve (according to the methods described by Morrissey, Kleitman and Bunge (1991)). The purity of the Schwann cells used for transplantation was between 95 and 98%.
For Schwann cell bridges, cells were suspended in matrigel/DMEM (30:70) and drawn into 3-8 mm long polymer guidance channels at a density of 120×10^6 cells/ml, as described by Xu et al. (1997). During implantation into adult rats (Fischer rats, Charles River Laboratories, 3-5 months old), each cut stump of the severed spinal cord was inserted 1 mm into the channel. Sometimes the Schwann cell cable is transplanted without the guidance channel. Either method, with or without the channel, is readily accomplished by persons who have performed this procedure a number of times and so have gained adequate expertise to accomplish this.
Spinal cords of adult rats were completely transected by surgery at the T8 cord level and the next caudal segment was removed. At the time of transection, a Schwann cell bridge was implanted at the injury site, 50 mM db-cAMP was injected (0.2 μl) or infused (5 μl) into the proximal and distal stump of the lesion and rolipram was delivered subcutaneously via minipump at 0.07 μmol/kg/hr for two weeks. […] Animals were assessed on a weekly basis for hindlimb locomotion, a measure of motor recovery, using the BBB test. […]

[4] = test system: rats with a moderate contusion injury at thoracic cord segment 8; test: BBB test of hindlimb locomotion after moderate contusion injury with Schwann cell injection; conditions: FIG. 3, tested weekly
Method: FIG. 3 compares the effects over time of db-cAMP injection and rolipram on BBB scores of rats receiving Schwann cell transplantation after receiving moderate contusion injury to the spinal cord by weight drop (NYU impactor, 12.5 mm height). Each treatment used 4 injection sites, 2-3 mm rostral and caudal to the injury site and on either side of the midline. Diamonds: 2×10^6 Schwann cells were injected into the injury site with saline injection one week post-injury; squares: 2×10^6 Schwann cells with 0.2 μL×1 mM db-cAMP (four injections) one week postinjury; triangles: 2×10^6 Schwann cells with 0.2 μL×50 mM db-cAMP (four injections) one week post-injury; crosses: 2×10^6 Schwann cells with 0.2 μL×50 mM […] (four injections) one day post-injury; circles: animals received rolipram by minipump starting within 30 minutes of the injury (0.07 μmol/kg/hr for 2 weeks after injury) and 1 week later Schwann cells with 0.2 μL×50 mM db-cAMP (four injections).
as §1

CCCC(=O)Nc1ncnc2c1ncn2[C@@H]1O[C@@H]2COP(=O)(O)O[C@H]2[C@H]1OC(=O)CCC [db-cAMP, dibutyryl-cAMP]
ability to perform fine motor tasks (footfall errors on gridwalk) [1]: exhibited many more errors
outward foot rotation in footprint analysis [2]: did not exhibit a similar level of recovery
trunk stability (base of support) in footprint analysis [2]: did not exhibit a similar level of recovery
hindlimb locomotion (BBB test) ([3]; FIG. 1, db-cAMP injected (0.2 μl) into both stumps): not observed
hindlimb locomotion (BBB test) ([3]; FIG. 2, db-cAMP infused (5 μl) into both stumps): not observed
hindlimb locomotion (BBB test) [4]: not observed
